Results published in ChEMBL document CHEMBL5385845, “Novel coumarin aminophosphonates as potential multitargeting antibacterial agents against Staphylococcus aureus” (Eur J Med Chem, 2023).
Converted amounts (≈) assume the structure as drawn. The source made the active and inactive calls. The rule behind the calls is not given here.

Experiments:
[1] = tested on: Staphylococcus aureus; experiment: Antibacterial activity against methicillin resistant Staphylococcus aureus N315 assessed as inhibition of bacterial growth; assay type: functional
[2] = tested on: Enterococcus faecalis; experiment: Antibacterial activity against Enterococcus faecalis assessed as inhibition of bacterial growth; assay type: functional
[3] = tested on: Staphylococcus aureus; experiment: Antibacterial activity against Staphylococcus aureus assessed as inhibition of bacterial growth; assay type: functional
[4] = tested on: Staphylococcus aureus; experiment: Antibacterial activity against Staphylococcus aureus ATCC 25923 assessed as inhibition of bacterial growth; assay type: functional
[5] = tested on: Staphylococcus aureus; experiment: Antibacterial activity against Staphylococcus aureus ATCC 29213 assessed as inhibition of bacterial growth; assay type: functional
[6] = tested on: Klebsiella pneumoniae; experiment: Antibacterial activity against Klebsiella pneumoniae assessed as inhibition of bacterial growth; assay type: functional
[7] = tested on: Escherichia coli; experiment: Antibacterial activity against Escherichia coli assessed as inhibition of bacterial growth; assay type: functional
[8] = tested on: Pseudomonas aeruginosa; experiment: Antibacterial activity against Pseudomonas aeruginosa assessed as inhibition of bacterial growth; assay type: functional
[9] = tested on: Acinetobacter baumannii; experiment: Antibacterial activity against Acinetobacter baumannii assessed as inhibition of bacterial growth; assay type: functional
[10] = tested on: Pseudomonas aeruginosa; experiment: Antibacterial activity against Pseudomonas aeruginosa ATCC 27853 assessed as inhibition of bacterial growth; assay type: functional
[11] = tested on: Escherichia coli; experiment: Antibacterial activity against Escherichia coli ATCC 25922 assessed as inhibition of bacterial growth; assay type: functional
[12] = tested on: Staphylococcus aureus; experiment: Synergistic antibacterial activity against Staphylococcus aureus assessed as inhibition of bacterial growth in presence of norfloxacin; assay type: functional
[13] = tested on: Escherichia coli; experiment: Synergistic antibacterial activity against Escherichia coli ATCC 25922 assessed as inhibition of bacterial growth in presence of norfloxacin; assay type: functional
[14] = tested on: Staphylococcus aureus; experiment: Synergistic antibacterial activity against Staphylococcus aureus assessed as fractional inhibitory concentration index in presence of norfloxacin; assay type: functional
[15] = Hemolytic activity in RBC (unknown origin) assessed as hemolysis at 256 ug/ml incubated for 6 hrs relative to control; assay type: toxicity, cell-based, Erythrocyte; settings: red blood cells (erythrocytes), at 256 µg/mL, read-out: Activity
[16] = tested on: Staphylococcus aureus; experiment: Antibacterial activity against Staphylococcus aureus assessed as reduction in bacterial biofilm formation; assay type: functional, organism-based
[17] = tested on: Staphylococcus aureus; experiment: Antibacterial activity against Staphylococcus aureus assessed as reduction in bacterial biofilm formation at 16 x MIC relative to control; assay type: functional; design: scale not given: the % may be the effect or the level left
[18] = tested on: Staphylococcus aureus; experiment: Induction of drug resistance in Staphylococcus aureus assessed as increase in MIC measured for 16 passages; assay type: functional
[19] = tested on: Cell membrane; experiment: Induction of cell membrane depolarization in Staphylococcus aureus assessed as increase in fluorescence intensity by DiSC3(5) dye-based fluorescence assay
[20] = tested on: Cell membrane; experiment: Induction of cytoplasmic membrane depolarization in Staphylococcus aureus assessed as increase in fluorescence intensity measured at 10 mins by DiSC3(5) dye-based fluorescence assay; assay type: subcellular
[21] = tested on: Cell membrane; experiment: Induction of cell membrane permeabilization in Staphylococcus aureus by propidium iodide dye-based fluorescence assay
[22] = tested on: Cell membrane; experiment: Induction of cell membrane permeabilization in Staphylococcus aureus by calcein-AM dye-based fluorescence assay; assay type: subcellular
[23] = tested on: Cell membrane; experiment: Disruption of cell membrane integrity in Staphylococcus aureus assessed as cell membrane damage by scanning electron microscopic analysis; assay type: subcellular
[24] = tested on: Cell membrane; experiment: Disruption of cell membrane integrity in Staphylococcus aureus assessed as increase in protein leakage
[25] = tested on: Staphylococcus aureus; experiment: Antibacterial activity against Staphylococcus aureus assessed as reduction in cellular metabolic activity by resazurin staining based assay; assay type: functional, organism-based
[26] = tested on: Staphylococcus aureus; experiment: Antibacterial activity against Staphylococcus aureus assessed as fold increase in intracellular ROS production at 8 times MIC by DCFH-DA dye based fluorometric assay relative to control; assay type: functional
[27] = tested on: Staphylococcus aureus; experiment: Antibacterial activity against Staphylococcus aureus assessed as increase in RNS production by griess reagent-based analysis; assay type: functional, organism-based
[28] = tested on: Staphylococcus aureus; experiment: Antibacterial activity against Staphylococcus aureus assessed as fold increase in RNS production at 8 times MIC by griess reagent-based analysis; assay type: functional
[29] = tested on: Staphylococcus aureus; experiment: Induction of oxidative stress in Staphylococcus aureus assessed as decrease in GSH activity at 8 times MIC relative to control; assay type: functional; design: scale not given: the % may be the effect or the level left
[30] = tested on: Staphylococcus aureus; experiment: Antibacterial activity against Staphylococcus aureus assessed as fold increase in malondialdehyde level at 1 to 5 times MIC; assay type: functional
[31] = tested on: Staphylococcus aureus; experiment: Antibacterial activity against Staphylococcus aureus assessed as effect on lipid peroxidation production at 1 to 5 times MIC incubated for 5 to 20 mins; assay type: functional, organism-based; settings: time 5-20 min
[32] = tested on: Calf thymus DNA; experiment: Binding affinity to calf thymus DNA assessed as intercalation by measuring hypochromic shift by UV-Vis spectroscopic analysis; assay type: nucleic-acid assay; settings: Bos taurus
[33] = tested on: Calf thymus DNA; experiment: Binding affinity to calf thymus DNA by acridine orange staining based competitive binding assay; assay type: nucleic-acid assay; settings: Bos taurus
[34] = tested on: Calf thymus DNA; experiment: Binding affinity to calf thymus DNA by DAPI staining based competitive binding assay; assay type: nucleic-acid assay; settings: Bos taurus
[35] = tested on: Staphylococcus aureus; experiment: Antibacterial activity against Staphylococcus aureus assessed as inhibition of bacterial growth at 1 to 4 times MIC incubated for 4 hrs; assay type: functional, organism-based
[36] = tested on: Staphylococcus aureus; experiment: Antibacterial activity against Staphylococcus aureus assessed as inhibition of bacterial growth at 0.5 times MIC incubated for 4 hrs; assay type: functional, organism-based
[37] = tested on: Escherichia coli; experiment: Synergistic antibacterial activity against Escherichia coli ATCC 25922 assessed as fractional inhibitory concentration index in presence of norfloxacin; assay type: functional

CCOP(=O)(OCC)C(Nc1ccc2c(C)cc(=O)oc2c1)c1cccc(O)c1 (configuration not stated)
MIC [1]: 32 mg/L (≈ 76.7 µM)
MIC [2]: 16 mg/L (≈ 38.3 µM)
MIC [3]: 0.5 mg/L (≈ 1.2 µM)
MIC [4]: 8 mg/L (≈ 19.2 µM)
MIC [5]: 16 mg/L (≈ 38.3 µM)
MIC [6]: 64 mg/L (≈ 153 µM)
MIC [7]: 64 mg/L (≈ 153 µM)
MIC [8]: 16 mg/L (≈ 38.3 µM)
MIC [9]: 16 mg/L (≈ 38.3 µM)
MIC [10]: 64 mg/L (≈ 153 µM)
MIC [11]: 4 mg/L (≈ 9.58 µM)
MIC [12]: 0.063 mg/L
MIC [13]: 1 mg/L
fractional inhibitory concentration index (FICI) [14]: 0.25
hemolysis at 6 h, 256 ug/ml [15]: < 4%
Activity [16]: Dose-Dependent Effect
Activity [17]: 30%
Activity [18]: inactive
Activity [19]: Dose-Dependent Effect
Activity [20]: Active
Activity [21]: Dose-Dependent Effect
Activity [22]: Dose-Dependent Effect
Activity [23]: Active
Activity [24]: Dose-Dependent Effect
Activity [25]: Dose-Dependent Effect
fold change (FC) [26]: 3.7
Activity [27]: Dose-Dependent Effect
fold change (FC) [28]: 2.2
Activity [29]: 16%
fold change (FC) [30]: 2
Activity [31]: inactive
Activity [32]: Dose-Dependent Effect
Activity [33]: Active
Activity [34]: Active
Activity [35]: Active
Activity [36]: Active
fractional inhibitory concentration index (FICI) [37]: 0.75
